Holding throughout (assay): NCI tumour cell line growth inhibition, 48 h
For test [1], the system named is ACHN renal.
For test [2], the system named is SW-620 colon.
The subject of test [3] is A549 NSCLC.
The test system of test [4] is EKVX NSCLC.
The test system of test [5] is HL-60(TB) leukemia.
In test [6] the test system is MDA-MB-231 breast.
Test [7] has as its system NCI-H23 lung.
For test [8], the system named is OVCAR-4 ovarian.
Test [9] concerns MDA-MB-435.
Test [10] relates to RXF 393 renal.

Structures are written as SMILES. Values joined by “and” are separate entries in the source; they are usually repeats but may differ in a detail not shown here. Identical values can stand only once.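 Where inhibition never reached the appropriate level, the endpoint shown equals the highest concentration tested. Otherwise, values were interpolated linearly from a five-concentration, 48-hour dose response in 96-well plates. GI50: concentration for 50% inhibition of growth. TGI marks complete inhibition of growth.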

Drawing on PubChem BioAssay (NCI), this text covers GI50 and TGI for eight compounds.

Take `CCC(C)C1=C(O)[N+]2([O-])Oc3ccc(C4=C(O)C(=O)C(c5ccc(O)cc5)=C(O)C4=O)cc3OC2(C(C)CC)C(=O)N1O` (stereo not given): the GI50 in [1] was 11.6 µM; in [2] it was 25.4 µM; in test [3] it was 9.35 µM; in [4], 23.7 µM; in test [5], 14.2 µM; in test [6], 15.5 µM. Further, the GI50 in test [7] was 13.3 µM; in test [8], over 100 µM; in test [9] it was 9.77 µM; in [10], 8.49 µM. Moreover, the TGI in [1] was over 100 µM; in test [2], over 100 µM; in test [3], over 100 µM; in [4] it was over 100 µM; in test [5] it was 86.7 µM; in test [6] it was 63.8 µM. Moreover, the TGI in [7] is over 100 µM; in test [8] it was over 100 µM; in test [9], 90.6 µM; in test [10] it was over 100 µM.

Take `Oc1[nH]c2ccccc2c1/C=c1/ccc2c(c1)N=C(c1ccc(C(F)(F)F)cc1)N=2`: the GI50 in test [1] was 3.24 µM; in [2] it was 1.92 µM; in test [3] it was 4.81 µM; in [4], 4.34 µM; in [5], 2.26 µM; in test [6], 2.04 µM. Further, the GI50 in [7] is 3.39 µM; in [8], 3.94 µM; in [9], 1.17 µM; in test [10] it was 2.21 µM. The TGI in test [1] is 17.4 µM; in test [2] it was 5.55 µM; in [3], 17.8 µM; in test [4], 16.9 µM; in [5] it was 5.27 µM; in test [6], 14 µM. The TGI is 15.7 µM in test [7], 15.8 µM in [8], 5.69 µM in test [9] and 4.32 µM in test [10].

`CC(=O)/C(Br)=C/c1ccc(Br)o1`: the GI50 in test [1] was 9.5 µM; in test [2], 2.1 µM; in test [3], 26.8 µM; in [4] it was 14.6 µM; in test [5] it was 2.53 µM; in test [6] it was 14.8 µM. Moreover, the GI50 is 12.1 µM in test [7], 9.35 µM in test [8], 8.51 µM in [9] and 2.86 µM in [10]. The TGI in [1] came out at 22.2 µM; in test [2], 4.87 µM; in test [3], 86.4 µM; in [4] it was 28.1 µM; in [5] it was 8.58 µM; in [6], 30 µM. Also, the TGI in [7] turned out to be 41.7 µM; in test [8], 22 µM; in test [9], 23.2 µM; in [10] it was 11 µM.

Take `Cc1ccc(-c2nc(-c3nccc4ccccc34)oc2-c2ccccc2)cc1`: the TGI in test [1] is over 100 µM; in test [2] it was over 100 µM; in [3] it was over 100 µM; in test [4], 64.5 µM; in [5] it was over 100 µM; in [6], over 100 µM. Further, the TGI in test [7], in [8], in test [9] and in test [10] was over 100 µM each time.

Turning to `COc1ccc(C2C(C#N)=C(N)Oc3c2sc2c(Br)cccc32)cc1` (stereo not given), the GI50 in test [1] was 4.82 µM; in test [2] it was 1.87 µM; in test [3], 4.69 µM; in test [4], 4.38 µM; in test [5], 1.12 µM; in test [6] it was 2.78 µM. For the same compound, the GI50 is 2.64 µM in [7], 3.02 µM in test [8], 0.373 µM in test [9] and 1.94 µM in test [10]. Moreover, the TGI was 19.3 µM in test [1]; 86.6 µM in test [2]; 21 µM in test [3]; 21 µM in [4]; 3.73 µM in [5]; 12.7 µM in test [6]. Moreover, the TGI in test [7] stood at 14.2 µM; in [8] it was 21.9 µM; in test [9], 2.54 µM; in test [10], 5.96 µM.

For `CCCCCCCCCCCCN=C(N)c1ccc(N2CCN(c3ccc(C(N)=NCCCCCCCCCCCC)cc3)CC2)cc1`, the GI50 in [1] was 20.7 µM; in test [2] it was 9.31 µM; in test [3], 11.1 µM; in test [4], 9.76 µM; in test [5] it was 2.15 µM; in [6], 10.3 µM. In addition, the GI50 in test [7] was 6.2 µM; in [8], 8.88 µM; in [9], 9.4 µM; in [10], 9.54 µM. Also, the TGI in test [1] is over 50 µM; in test [2], 28.1 µM; in test [3], 30.5 µM; in test [4], 20.5 µM; in test [5] it was over 50 µM; in test [6] it was 20 µM. The TGI in [7] turned out to be 15.1 µM; in test [8] it was 20.9 µM; in [9] it was 19.4 µM; in test [10], 37.6 µM.

As for `Cc1ccc(Cl)c(NS(=O)(=O)c2ccc(-c3cnc(C4CC4)o3)cc2)c1`, the GI50 was 0.205 µM in test [1]; 0.0528 µM in test [2]; 0.146 µM in [3]; 0.314 µM in [4]; 0.0451 µM in test [5]; 0.651 µM in test [6]. The GI50 was 0.365 µM in test [7], 2.1 µM in test [8], 0.0382 µM in test [9] and 0.199 µM in test [10]. For the same compound, the TGI in test [1] is over 72.7 µM; in test [2], over 100 µM; in test [3], over 100 µM; in test [4] it was over 100 µM; in test [6] it was over 100 µM; in [7], 62.8 µM. In addition, the TGI in [8] is 80.6 µM; in test [9] it was 2.23 µM; in test [10], over 100 µM.

Turning to `O=C1NC2(CCCCC2)C(=O)N1CCN(CCCl)CCCl`, the TGI was 25 µM in test [1]; > 25 µM and 150 µM in test [2]; over 250 µM in [3]; over 250 µM in test [4]; 25 µM and 183 µM in [5]; over 25 µM in test [6]. Moreover, the TGI in [8] is over 250 µM; in test [9], over 25 µM; in test [10] it was > 25 µM and 202 µM. In addition, the GI50 was over 25 µM in [2]; over 25 µM in [3]; over 25 µM in test [4]; 11.8 µM in test [5]; 24.8 µM in [7]; over 25 µM in test [8]. Also, in test [10], the GI50 is > 25 µM and 99.2 µM.
